Patent USRE47428E1, “Modulators of methyl modifying enzymes, compositions and uses thereof” (Constellation Pharmaceuticals, Inc., priority 2013, dated 2019)
Read-outs that look alike come from different tables or passages of the source.

Tests used:
Y641N EZH2 = Y641N EZH2 (Homo sapiens, UniProt Q15910, Y641N); test: Y641N EZH2 assay, H3K27Me2 oligonucleosomes as substrate; format: biochemical
Experimental: (§1) Assays were carried out by mixing rPRC2 together with biotinylated oligonucleosome substrates in the presence of the radio-labeled enzyme co-factor, S-adenosyl-L-methionine (^3H SAM) (Perkin Elmer) and monitoring the enzymatically mediated transfer of tritiated methyl groups from ^3H SAM to histone lysine residues. The amount of resulting tritiated methyl histone product was measured by first capturing the biotinylated oligonucleosomes in streptavidin (SAV) coated FlashPlates (Perkin Elmer), followed by a wash step to remove un-reacted ^3H SAM, and then counting on a TopCount NXT 384 well plate scintillation counter (Perkin Elmer). The final assay conditions for EZH2 were as follows: 50 mM Tris Buffer pH 8.5, 1 mM DTT, 69 μM Brij-35 detergent, 5.0 mM MgCl2, 0.1 mg/mL BSA, 0.2 μM ^3H SAM, 0.2 μM biotinylated oligonucleosomes, 3.6 μM H3K27me3 peptide and 2 nM EZH2.
(§2) A 12.5 μL volume of the HMT enzyme, H3K27me3 peptide and oligonucleosome substrate in assay buffer was added to each well of the assay plate using a Multidrop Combi (Thermo-Fisher). Compounds were pre-incubated with the enzyme for 20 min, followed by initiation of the methyltransferase reaction by addition of 12.5 μL of ^3H SAM in assay buffer (final volume=25 μL). The final concentrations of compounds ranged from a top default concentration of 80 μM down to 0.16 μM in ten 2-fold dilution steps. Reactions were carried out for 60 minutes and quenched with 20 μL per well of 1.96 mM SAH, 50 mM Tris pH 8.5, 200 mM EDTA. Stopped reactions were transferred to SAV coated Flash-plates (Perkin Elmer), incubated for 120 min, washed with a plate washer, and then read on the TopCount NXT (1.0 min/well) to measure the amount of methyl histone product formed during the reaction.

EZH2 = EZH2 (Homo sapiens, UniProt Q15910); test: EZH2 assay: rPRC2 methyltransferase, 3H SAM FlashPlate; format: biochemical; conditions: 0.2 μM 3H SAM, 2 nM EZH2
Experimental: as §1, §2

[1] = test system: Karpas422 human lymphoma xenograft; test: Tumor growth inhibition, subcutaneous Karpas422 human lymphoma xenograft model; format: in vivo, Mus Musculus; conditions: 160 mg/kg; for TGI (%) / T/C (%) / Tumor Size (mm3) on day 25: Karpas422 xenograft; for TGI (%) / T/C (%): CB-17 SCID mice; for TGI (%) / T/C (%) / Significance: day 25; for T/C (%): treated/control mean tumor volume; for Tumor Size (mm3) on day 25: female CB-17 SCID mice, day 25 after start of treatment, Mean ± SEM; for Significance: one-way ANOVA vs vehicle, tumor volume
Experimental: Number of animals: 50 mice plus spare
Animal supplier: Shanghai SLAC Laboratory Animal Co., LTD.
The Karpas422 tumor cells were maintained in vitro as suspension culture in RPMI1640 medium supplemented with 10% heat inactivated fetal calf serum at 37° C. in an atmosphere of 5% CO2 in air. The tumor cells were routinely subcultured twice weekly. The cells growing in an exponential growth phase were harvested and counted for tumor inoculation.
Each mouse was inoculated subcutaneously at the right flank with the Karpas422 tumor cells (5×10^6) in 0.2 ml of PBS with Matrigel (1:1) for tumor development. Day 23 after tumor inoculation was as day 0 after the start of treatment when the average tumor size reached approximately 300 mm^3. Each group consisted of 10 tumor-bearing mice.
Tumor size was measured three times weekly in two dimensions using a caliper, and the volume was expressed in mm^3 using the formula: V=0.536a×b^2 where a and b are the long and short diameters of the tumor, respectively. The tumor size was then used for calculations of T/C values. The T/C value (in percent) is an indication of antitumor effectiveness; T and C are the mean volumes of the treated and control groups, respectively, on a given day. TGI was calculated for each group using the formula: TGI (%)[1−(Ti−T0)/(Vi−V0)]×100; Ti is the average tumor volume of a treatment group on a given day, T0 is the average tumor volume of the treatment group on the day of treatment start, Vi is the average tumor volume of the vehicle control group on the same day with Ti, and V0 is the average tumor volume of the vehicle group on the day of treatment start.
Experimental Endpoint and Sample Collection
1). Plasma, tumor and muscle in EPZ-6438 group were collected on day 16 after the start of treatment at 6 h after dosing. Plasma, tumor and muscle in vehicle, CPI-524369, CPI-524416 and CPI-591780 groups were collected on day 25 after the start of treatment at 1 h after dosing. 2). All the blood was taken from each animal with EDTA-K2 as anticoagulant. Plasma was divided into two parts. The first part was for PK analysis; the second part was frozen for backup. 3). Tumor was divided into three parts. The first part was snap-frozen for PK; the second part was snap-frozen for PD analysis; the third part was frozen for backup. 4). Muscle was divided into two parts. The first part was snap-frozen for PK; the second part was frozen for backup.
Tumor Growth Inhibition Analysis

[2] = rPRC2, biotinylated oligonucleosomes, read-out: EZH2 IC50
[3] = Y641N EZH2 mutant enzyme, H3K27Me2 oligonucleosomes, read-out: Y641N EZH2 IC50
[4] = EZH2 IC50, rPRC2, biotinylated oligonucleosomes

Sequence of EZH2 (Q15910 whole entry): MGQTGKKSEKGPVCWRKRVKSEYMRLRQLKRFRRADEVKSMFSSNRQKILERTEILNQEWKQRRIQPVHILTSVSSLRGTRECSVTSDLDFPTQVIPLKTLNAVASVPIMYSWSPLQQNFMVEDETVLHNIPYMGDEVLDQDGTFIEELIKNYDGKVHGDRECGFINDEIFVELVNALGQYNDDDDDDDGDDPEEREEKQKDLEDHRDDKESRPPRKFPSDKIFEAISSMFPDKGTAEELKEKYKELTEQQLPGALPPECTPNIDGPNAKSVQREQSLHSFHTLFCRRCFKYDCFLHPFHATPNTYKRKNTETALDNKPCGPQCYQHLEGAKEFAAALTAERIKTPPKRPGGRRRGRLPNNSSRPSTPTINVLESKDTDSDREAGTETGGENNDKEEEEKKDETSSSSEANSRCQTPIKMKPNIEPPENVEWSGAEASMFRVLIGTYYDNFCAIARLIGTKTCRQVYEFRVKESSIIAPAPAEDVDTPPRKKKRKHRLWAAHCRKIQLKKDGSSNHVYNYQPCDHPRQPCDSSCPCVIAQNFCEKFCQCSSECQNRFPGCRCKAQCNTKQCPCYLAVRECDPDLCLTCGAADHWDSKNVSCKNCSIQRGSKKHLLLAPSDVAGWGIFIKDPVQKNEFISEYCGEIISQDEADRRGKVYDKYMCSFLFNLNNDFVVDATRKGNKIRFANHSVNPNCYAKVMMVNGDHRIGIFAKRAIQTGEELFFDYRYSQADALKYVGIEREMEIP
Sequence of EZH2 (O75530 whole entry partner): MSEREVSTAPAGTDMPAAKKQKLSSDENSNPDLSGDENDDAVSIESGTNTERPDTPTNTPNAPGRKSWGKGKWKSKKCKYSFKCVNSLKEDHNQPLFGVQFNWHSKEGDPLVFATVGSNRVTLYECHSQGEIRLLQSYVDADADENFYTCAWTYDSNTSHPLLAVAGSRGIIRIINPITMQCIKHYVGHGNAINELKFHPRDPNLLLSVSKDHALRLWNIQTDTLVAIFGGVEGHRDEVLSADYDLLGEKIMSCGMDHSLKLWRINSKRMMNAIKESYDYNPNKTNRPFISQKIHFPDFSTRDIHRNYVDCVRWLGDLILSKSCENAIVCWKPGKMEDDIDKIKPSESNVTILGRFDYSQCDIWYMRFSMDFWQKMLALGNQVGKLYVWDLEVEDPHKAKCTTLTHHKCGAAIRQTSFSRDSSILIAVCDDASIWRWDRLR
Sequence of EZH2 (Q15022 whole entry partner): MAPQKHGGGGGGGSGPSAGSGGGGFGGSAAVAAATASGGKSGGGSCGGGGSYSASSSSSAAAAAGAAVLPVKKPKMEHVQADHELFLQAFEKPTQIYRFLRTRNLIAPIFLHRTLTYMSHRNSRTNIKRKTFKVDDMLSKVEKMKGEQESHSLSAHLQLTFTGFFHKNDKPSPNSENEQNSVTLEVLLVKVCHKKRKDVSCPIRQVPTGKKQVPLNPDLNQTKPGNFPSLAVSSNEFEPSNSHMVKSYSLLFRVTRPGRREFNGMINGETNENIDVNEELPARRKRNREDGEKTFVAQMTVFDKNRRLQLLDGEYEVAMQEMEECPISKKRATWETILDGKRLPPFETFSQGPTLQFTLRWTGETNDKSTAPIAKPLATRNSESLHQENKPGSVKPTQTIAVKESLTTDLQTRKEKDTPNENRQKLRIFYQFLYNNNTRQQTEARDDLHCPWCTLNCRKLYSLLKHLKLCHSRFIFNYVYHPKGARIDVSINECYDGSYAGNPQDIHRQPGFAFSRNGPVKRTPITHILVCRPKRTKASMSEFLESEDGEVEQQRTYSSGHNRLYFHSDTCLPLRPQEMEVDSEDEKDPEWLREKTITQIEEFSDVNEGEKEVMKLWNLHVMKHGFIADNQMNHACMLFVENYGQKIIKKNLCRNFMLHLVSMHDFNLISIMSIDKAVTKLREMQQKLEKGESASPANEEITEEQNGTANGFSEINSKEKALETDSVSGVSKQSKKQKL
Sequence of Y641N EZH2 (Q15910 whole entry Y641N): as the sequence (Q15910 whole entry) above, with Y641N counted along it
Sequence of Y641N EZH2 (O75530 whole entry partner): as the sequence (O75530 whole entry partner) above
Sequence of Y641N EZH2 (Q15022 whole entry partner): as the sequence (Q15022 whole entry partner) above

SMILES	IC50 (Y641N EZH2) [nM]	IC50 (EZH2; [2]) [nM]	IC50 (Y641N EZH2; [3]) [nM]	IC50 (EZH2; [4]) [nM]	also measured
COc1cc(C)[nH]c(=O)c1CNC(=O)c1c(C)n(C(C)C(C)OC)c2ncccc12 (single isomer, unassigned) [Compound 266, N-((4-methoxy-6-methyl-2-oxo-1,2-dihydropyridin-3-yl)methyl)-1-((2R or 2S, 3R or 3S)-3-methoxybutan-2-yl)-2-methyl-1H-pyrrolo[2,3-b]pyridine-3-carboxamide]	100 to 1000				
COc1cc(C)[nH]c(=O)c1CNC(=O)c1c(C)n(C(C)C2CCN(S(C)(=O)=O)CC2)c2ccccc12 (single isomer, unassigned) [Compound 336, (R or S)-N-((4-methoxy-6-methyl-2-oxo-1,2-dihydropyridin-3-yl)methyl)-2-methyl-1-(1-(1-(methylsulfonyl)piperidin-4-yl)ethyl)-1H-indole-3-carboxamide]		< 100	< 100		
COc1cc(C)[nH]c(=O)c1CNC(=O)c1c(C)n(C(C)C2CCN(C(=O)C(C)(C)O)CC2)c2ccccc12 (single isomer, unassigned) [Compound 337, (R or S)-1-(1-(1-(2-hydroxy-2-methylpropanoyl)piperidin-4-yl)ethyl)-N-((4-methoxy-6-methyl-2-oxo-1,2-dihydropyridin-3-yl)methyl)-2-methyl-1H-indole-3-carboxamide]		< 100	< 100		
COc1cc(C)[nH]c(=O)c1CNC(=O)c1c(C)n(C(C)C2CCN(C3COC3)CC2)c2ccccc12 (single isomer, unassigned) [Compound 341, (R or S)-N-((4-methoxy-6-methyl-2-oxo-1,2-dihydropyridin-3-yl)methyl)-2-methyl-1-(1-(1-(oxetan-3-yl)piperidin-4-yl)ethyl)-1H-indole-3-carboxamide]	< 100			< 100	
COc1cc(C)[nH]c(=O)c1CNC(=O)c1c(C)n(C(C)C2CCN(C(=O)C(C)C)CC2)c2ccccc12 (single isomer, unassigned) [Compound 342, (R or S)-1-(1-(1-isobutyrylpiperidin-4-yl)ethyl)-N-((4-methoxy-6-methyl-2-oxo-1,2-dihydropyridin-3-yl)methyl)-2-methyl-1H-indole-3-carboxamide]		< 100	< 100		
Cc1cc(OC(F)F)c(CNC(=O)c2c(C)n(C(C)C3CCN(S(C)(=O)=O)CC3)c3ccccc23)c(=O)[nH]1 (single isomer, unassigned) [Compound 344, (R or S)-N-((4-(difluoromethoxy)-6-methyl-2-oxo-1,2-dihydropyridin-3-yl)methyl)-2-methyl-1-(1-(1-(methylsulfonyl)piperidin-4-yl)ethyl)-1H-indole-3-carboxamide]		< 100	< 100		
COCCN1CCC(C(C)n2c(C)c(C(=O)NCc3c(OC)cc(C)[nH]c3=O)c3ccccc32)CC1 (single isomer, unassigned) [Compound 359, (R or S)-N-((4-methoxy-6-methyl-2-oxo-1,2-dihydropyridin-3-yl)methyl)-1-(1-(1-(2-methoxyethyl)piperidin-4-yl)ethyl)-2-methyl-1H-indole-3-carboxamide]	< 100			< 100	
COc1cc(C)[nH]c(=O)c1CNC(=O)c1c(C)n(C(C)C2CCN(CC(F)F)CC2)c2ccccc12 (single isomer, unassigned) [Compound 362, (R or S)-1-(1-(1-(2,2-difluoroethyl)piperidin-4-yl)ethyl)-N-((4-methoxy-6-methyl-2-oxo-1,2-dihydropyridin-3-yl)methyl)-2-methyl-1H-indole-3-carboxamide]					TGI (%) [1]: 92.75%; T/C (%) [1]: 22.59%; Tumor Size (mm3) on day 25 [1]: 385 ± 66 mm3; Significance [1]: *** (*** p < 0.001)
COc1cc(C)[nH]c(=O)c1CNC(=O)c1c(C)n(C(C)C2CCN(CC(F)(F)F)CC2)c2ccccc12 (single isomer, unassigned) [Compound 365, (R or S)-N-((4-methoxy-6-methyl-2-oxo-1,2-dihydropyridin-3-yl)methyl)-2-methyl-1-(1-(1-(2,2,2-trifluoroethyl)piperidin-4-yl)ethyl)-1H-indole-3-carboxamide]					TGI (%) [1]: 97.25%; T/C (%) [1]: 18.72%; Tumor Size (mm3) on day 25 [1]: 319 ± 67 mm3; Significance [1]: *** (*** p < 0.001)
CCc1cc(C)[nH]c(=O)c1CNC(=O)c1c(C)n(C(C)C2CCN(C)CC2)c2ccccc12 (single isomer, unassigned) [Compound 366, (R or S)-N-((4-ethyl-6-methyl-2-oxo-1,2-dihydropyridin-3-yl)methyl)-2-methyl-1-(1-(1-methylpiperidin-4-yl)ethyl)-1H-indole-3-carboxamide]	< 100			< 100	
Cc1cc(C)c(CNC(=O)c2c(C)n(C(C)C3CCN(C4COC4)CC3)c3ccccc23)c(=O)[nH]1 (single isomer, unassigned) [Compound 375, (R or S)-N-((4,6-dimethyl-2-oxo-1,2-dihydropyridin-3-yl)methyl)-2-methyl-1-(1-(1-(oxetan-3-yl)piperidin-4-yl)ethyl)-1H-indole-3-carboxamide]	< 100			< 100	
